What follows are compounds tested against T1, Apoptotic protease-activating factor 1 (Homo sapiens, UniProt O14727) (assay: activation of Apaf-1 mediated apoptosis – fluorescent, uHTS hits, dose response (AID 588554)).
T1 sequence (O14727 whole entry): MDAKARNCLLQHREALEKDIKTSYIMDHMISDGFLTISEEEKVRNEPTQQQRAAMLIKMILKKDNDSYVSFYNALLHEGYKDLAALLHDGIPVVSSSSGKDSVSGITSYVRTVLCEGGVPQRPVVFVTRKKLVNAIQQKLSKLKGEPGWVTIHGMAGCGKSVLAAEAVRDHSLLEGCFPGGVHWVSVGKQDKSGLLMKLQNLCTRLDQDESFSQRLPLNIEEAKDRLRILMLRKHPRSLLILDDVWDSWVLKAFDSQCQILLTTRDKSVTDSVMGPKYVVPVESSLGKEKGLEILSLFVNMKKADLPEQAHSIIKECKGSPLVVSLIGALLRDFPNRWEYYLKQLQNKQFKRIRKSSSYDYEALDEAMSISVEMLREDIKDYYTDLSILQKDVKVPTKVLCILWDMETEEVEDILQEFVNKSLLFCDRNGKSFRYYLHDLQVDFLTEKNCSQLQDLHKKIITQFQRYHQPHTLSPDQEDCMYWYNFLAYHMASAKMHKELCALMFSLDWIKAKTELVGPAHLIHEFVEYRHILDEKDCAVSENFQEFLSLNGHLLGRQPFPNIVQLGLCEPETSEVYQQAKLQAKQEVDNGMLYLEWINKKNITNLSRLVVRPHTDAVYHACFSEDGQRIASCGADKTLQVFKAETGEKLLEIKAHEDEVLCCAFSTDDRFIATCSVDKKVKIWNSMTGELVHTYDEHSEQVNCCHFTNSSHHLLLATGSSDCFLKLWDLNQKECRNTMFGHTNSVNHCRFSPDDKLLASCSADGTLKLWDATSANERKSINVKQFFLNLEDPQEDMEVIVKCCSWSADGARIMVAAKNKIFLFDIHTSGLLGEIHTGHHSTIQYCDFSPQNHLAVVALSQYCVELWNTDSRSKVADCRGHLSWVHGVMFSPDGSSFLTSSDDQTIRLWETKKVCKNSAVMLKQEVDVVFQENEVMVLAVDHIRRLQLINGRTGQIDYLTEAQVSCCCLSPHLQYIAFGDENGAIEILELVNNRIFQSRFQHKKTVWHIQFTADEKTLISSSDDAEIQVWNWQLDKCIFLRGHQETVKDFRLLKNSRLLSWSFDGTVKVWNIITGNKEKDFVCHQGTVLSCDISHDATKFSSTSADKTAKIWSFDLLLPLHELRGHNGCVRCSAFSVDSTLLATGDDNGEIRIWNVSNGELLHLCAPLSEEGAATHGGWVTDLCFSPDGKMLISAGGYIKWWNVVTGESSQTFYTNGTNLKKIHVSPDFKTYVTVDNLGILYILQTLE

Point of comparison: `O=C(NN=CC1C=C(Cl)C=C([N+](=O)[O-])C1=O)NC12CC3CC(CC(C3)C1)C2` (stereo not drawn) [1-(1-adamantyl)-3-[[(E)-(3-chloro-5-nitro-6-oxo-1-cyclohexa-2,4-dienylidene)methyl]amino]urea], EC50 6.87 µM. Against it:
- CCOc1ccc(C(=O)CC=Nc2ccc(S(=O)(=O)NC(=N)N)cc2)cc1 [2-[4-[[(E)-3-(4-ethoxyphenyl)-3-oxidanylidene-prop-1-enyl]amino]phenyl]sulfonylguanidine] — within 1.5-fold, 6.28 µM
- CSc1ccc(CN=Nc2ccc(S(=O)(=O)Nc3ccccc3C(=O)O)cc2[N+](=O)[O-])cc1 [MLS002245633] — within 1.5-fold, 8.23 µM
